We go through 1 molecule from ChEMBL document CHEMBL3286222, “Synthesis and antiproliferative studies of 5-aryl-2-(3-thienylamino)-1,3,4-thiadiazoles” (Bioorg Med Chem Lett, 2014).

pIC50: −log10 of the molar value.

As a reminder, the pIC50 is the IC50 on a negative log10 scale, so that one unit is a factor of ten.

One test concerns MCF7. Description: Cytotoxicity against human MCF7 cells assessed as growth inhibition after 72 hrs by MTT colorimetric assay. The test is classed as functional, cell-based. To be noted: MCF7, 72 h.
Test [1] can be described thus: Cytotoxicity against mouse B16F10 cells assessed as cell viability at 1 uM after 72 hrs by MTT colorimetric assay. The test is classed as functional. To be noted: B16-F10, 72 h, read-out: Activity. On the technique in general: Formazan colour is commonly taken as a measure of viable cells.
The subject of another test is A549. The test is described as follows: Cytotoxicity against human A549 cells assessed as cell viability at 5 uM after 72 hrs by MTT colorimetric assay. The test is classed as functional. To be noted: A549, 72 h, read-out: Activity.
Test [2] is described as follows: Cytotoxicity against human Hs683 cells assessed as cell viability at 10 uM after 72 hrs by MTT colorimetric assay. The test is classed as functional. As to conditions: Hs 683, 72 h, read-out: Activity.
Another test concerns SK-MEL-28. The test is described as follows: Cytotoxicity against human SK-MEL-28 cells assessed as growth inhibition after 72 hrs by MTT colorimetric assay. The format is functional, cell-based. As to conditions: SK-MEL-28, 72 h.
A short description of test [3]: Cytotoxicity against human U373 cells assessed as growth inhibition after 72 hrs by MTT colorimetric assay. The format is functional, cell-based, U-373MG ATCC. As to conditions: U373 MG.

Consider `COc1ccc(-c2cc(Nc3nnc(-c4ccc(C)cc4)s3)cs2)cc1`, for which the pIC50 (in the test with MCF7; in the test with SK-MEL-28; in test [3]) was below 4.00 in each case. In test [1], the viability at 1 µM was below 50%. In the test with A549, the viability at 5 µM is below 50%. Also, the viability at 10 µM in test [2] is below 50%.
